Assay [1] in a line: viability loss in HEK293 cells – cell-based, luminescence, dry powder, set 15, cytotoxicity control, dose response (AID 743470). As to conditions: HEK293T viability, CellTiter-Glo ATP luminescence, 72 h. For orientation: ATP-based viability assays read luminescence as a measure of living cells.
The test system of assay [2] is HEK293T viability, CellTiter-Glo ATP luminescence, 72 h. Described as above.

From PubChem BioAssay AID743470 (Broad Institute, 2014) come the findings set out here.

Results filed as inconclusive are left out. Active and inactive are the calls of the source.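 The calls were made as follows: active = fitted curve falls past -35% at a concentration up to twice the top valid dose; inconclusive = no clear call, values can overlap the other calls; inactive = signal rising instead of falling, plus the rest.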

`COc1ccc(S(=O)(=O)N2CC[C@@H]3[C@H](CO)Nc4ccc(-c5ccc(C#N)cc5)cc4[C@@H]32)cc1`: the activity change, negative = cytotoxicity in assay [1] (at 8 µM (top of the series)) was -17.6% (inactive).
On to `COc1cc(Nc2ncc3c(n2)-c2ccc(Cl)cc2C(c2c(F)cccc2OC)=NC3)ccc1C(=O)O`, for which the activity change, negative = cytotoxicity in assay [1] (at 26 µM (top of the series)) was 24.7% (inactive).
Regarding `N#CC1=C(N)Oc2cc(N)ccc2C1c1cccc(F)c1` (stereo not drawn), in assay [2], the AC35 was 4.67 µM.
For the molecule `CN1c2ccc(-c3ccc(C#N)cc3)cc2[C@H]2[C@H](CCN2S(=O)(=O)c2cccc(F)c2)[C@H]1CO`, the activity change, negative = cytotoxicity in assay [1] (at 26 µM (top of the series)) is -71.9% (inactive).
On to `COc1ccccc1-c1nnc2n1N=C(c1ccc3c(c1)OCO3)CS2`, for which the activity change, negative = cytotoxicity in assay [1] (at 26 µM (top of the series)) was -39.2% (inactive).
Take `O=P1(NCCCl)OCCCN1CCCl` (stereo not drawn): the activity change, negative = cytotoxicity in assay [1] (at 50 µM (top of the series)) was 9.21% (inactive).
On to `CCc1c2c(nc3ccc(O)cc13)-c1cc3c(c(=O)n1C2)COC(=O)C3(O)CC` (stereo not drawn), for which, in assay [2], the AC35 is 0.0239 µM.
Consider `CC(C)N1c2ccccc2C(c2ccc(F)cc2)C1/C=C/C(O)CC(O)CC(=O)O` (stereo not drawn), for which the AC35 in assay [2] is 4.91 µM.
For `N#Cc1ccc(-c2ccc3c(c2)[C@H]2[C@H](CCN2S(=O)(=O)c2ccccc2F)[C@@H](CO)N3)cc1`, the activity change, negative = cytotoxicity in assay [1] (at 26 µM (top of the series)) was -7.37% (inactive).
As to `O=C(Nc1c(Cl)cncc1Cl)c1ccc(OC(F)F)c(OCC2CC2)c1`, the activity change, negative = cytotoxicity in assay [1] (at 26 µM (top of the series)) was -18.6% (inactive).
Still for that read-out and setting: the value for `COc1ccc(S(=O)(=O)N2CC[C@@H]3[C@@H](CO)Nc4ccc(-c5cccc(C#N)c5)cc4[C@@H]32)cc1` was -20.5% (inactive).
With `CN1CCN(CCOc2cc(OC3CCOCC3)c3c(Nc4c(Cl)ccc5c4OCO5)ncnc3c2)CC1`, in assay [2], the AC35 was 23.8 µM.
For the molecule `COc1cccc(C2C(C#N)=C(N)Oc3cc(N)ccc32)c1` (stereo not drawn), in assay [1] (at 26 µM (top of the series)), the activity change, negative = cytotoxicity was -23.2% (inactive).
With `COc1ccc(C2=Nn3c(nnc3-c3ccccc3F)SC2)cc1OC`, the activity change, negative = cytotoxicity in assay [1] (at 8 µM (top of the series)) is -35.4% (inactive).
As to `COc1ccc(C2C(C#N)=C(N)Oc3cc(N)ccc32)cc1` (stereo not drawn), the activity change, negative = cytotoxicity in assay [1] (at 26 µM (top of the series)) is -0.135% (inactive).
Still for that read-out and setting: the figure for `COc1ccccc1S(=O)(=O)N1CC[C@@H]2[C@@H](CO)Nc3ccc(-c4ccc(C#N)cc4)cc3[C@@H]21` is -22.8% (inactive).
For `N#CC1=C(N)Oc2cc(N)ccc2C1c1ccccc1` (stereo not drawn), in assay [2], the AC35 is 17.4 µM.
Still for that read-out and setting: the figure for `COc1ccc(C2=Nn3c(nnc3-c3ccccc3OC)SC2)cc1OC` is 0.377 µM; for `CC[C@]1(O)CC2CN(CCc3c([nH]c4ccccc34)[C@@](C(=O)OC)(c3cc4c(cc3OC)N(C=O)[C@H]3[C@@](O)(C(=O)OC)[C@H](OC(C)=O)[C@]5(CC)C=CCN6CC[C@]43[C@@H]65)C2)C1` (stereo partly drawn) it is 0.651 µM.
Regarding `N#CC1=C(N)Oc2cc(OC(=O)c3ccccc3)ccc2C1c1cccc(Br)c1` (stereo not drawn), in assay [1] (at 26 µM (top of the series)), the activity change, negative = cytotoxicity was -25.6% (inactive).
Regarding `COc1ccc(NC(=O)Nc2ccc3c(c2)C(=O)N([C@@H](C)CO)C[C@H](C)[C@H](CN(C)Cc2ccc4c(c2)OCO4)O3)cc1`, the activity change, negative = cytotoxicity in assay [1] (at 12 µM (top of the series)) is 20.2% (inactive).
Turning to `Cc1c([C@H](C(Cl)Cl)[C@H](O)[C@H]2C[C@H](C)C(=O)O2)ccc2c1C(=O)[C@H]1[C@H]2C[C@@H](Br)[C@@]23O[C@@H](CO[C@H]2O)C[C@]13C`, the activity change, negative = cytotoxicity in assay [1] (at 26 µM (top of the series)) was -35.3% (inactive).
With `Cc1cccc(C2C(C#N)=C(N)Oc3cc(N)ccc32)c1` (stereo not drawn), the activity change, negative = cytotoxicity in assay [1] (at 26 µM (top of the series)) was -30.4% (inactive).
Consider `CC[C@@]1(O)C(=O)OCc2c1cc1n(c2=O)Cc2cc3c(CN(C)C)c(O)ccc3nc2-1`, for which the AC35 in assay [2] is 0.181 µM.
Take `COc1ccc(-c2ccc3c(c2)[C@H]2[C@H](CCN2S(=O)(=O)c2ccc(OC)cc2)[C@@H](CO)N3)cc1`: the activity change, negative = cytotoxicity in assay [1] (at 26 µM (top of the series)) was -6.28% (inactive).
The same measure, in the same setting: the figure for `CN1c2ccc(-c3ccc(C#N)cc3)cc2[C@H]2[C@H](CCN2S(=O)(=O)c2ccc(F)cc2)[C@H]1CO` is 13.6% (inactive).
With `Cc1ccc(S(=O)(=O)N2CC[C@@H]3[C@@H](CO)Nc4ccc(-c5ccc(C#N)cc5)cc4[C@@H]32)cc1`, in assay [1] (at 26 µM (top of the series)), the activity change, negative = cytotoxicity was 17.9% (inactive).
Turning to `CCC(C)C(=O)OC1CC(C)C=C2C=CC(C)C(CCC(O)CC(O)CC(=O)O)C21` (stereo not drawn), the activity change, negative = cytotoxicity in assay [1] (at 50 µM (top of the series)) was 55.2% (inactive).
As to `COc1cc([C@@H]2c3cc4c(cc3[C@@H](O[C@@H]3O[C@@H]5CO[C@@H](C)O[C@H]5[C@H](O)[C@H]3O)[C@H]3COC(=O)[C@H]23)OCO4)cc(OC)c1O`, the activity change, negative = cytotoxicity in assay [1] (at 1.35 µM (top of the series)) is -29% (inactive).
In the case of `N#CC1=C(N)Oc2cc(O)ccc2C1c1cccc(Br)c1` (stereo not drawn), the activity change, negative = cytotoxicity in assay [1] (at 26 µM (top of the series)) was -24.3% (inactive).
As to `COc1ccc(S(=O)(=O)N2CC[C@@H]3[C@@H](CO)N(C)c4ccc(-c5ccc(F)cc5)cc4[C@@H]32)cc1`, the activity change, negative = cytotoxicity in assay [1] (at 8 µM (top of the series)) was 0.125% (inactive).
As to `Cc1nc(Nc2ncc(C(=O)Nc3c(C)cccc3Cl)s2)cc(N2CCN(CCO)CC2)n1`, the AC35 in assay [2] was 38.2 µM.
As for `COc1ccc(C2CNC(=O)C2)cc1OC1CCCC1` (stereo not drawn), in assay [1] (at 26 µM (top of the series)), the activity change, negative = cytotoxicity was -2.74% (inactive).
